This is an account of results in patent US4665092A, “Styrene derivatives, their use as antiallergic agents and intemediate epoxides for their synthesis” (Ortho Pharmaceutical Corporation, priority 1985, dated 1987).

The assay can be described thus: Anti-allergic / anti-inflammatory activity of the invention compounds; the test is not specified (5-lipoxygenase inhibition in RBL-1 cells and active lung anaphylaxis in guinea-pigs are described). Conditions: no IC50 or percent inhibition printed. The method, then: The compounds of the invention of formulae (I) and (II) may be used as pharmaceutical agents in the treatment of inflammation and/or allergic reactions. […] Such testing procedures were carried out on compounds of the invention as described below:
Rat basophilic leukemia cells (RBL-1) were grown in Eagle's Minimal Essential Medium containing 10% fetal calf serum, 5% calf serum, 1% glutamine and 50 mg/L gentamycin and were maintained at 37° C. in a atmosphere containing 5% CO2. Exponentially growing cells were harvested by centrifugation at 400xg for 10 minutes at 4° C. and were washed once with Dulbecco's phosphate buffered saline containing 0.87 mM CaCl2. The cells were resuspended in the same buffer at a concentration of 1.85×10^7 cells/ml. […]
In order to isolate the Δ5 -lipoxygenase product ^14 C-5-HETE that was formed from arachidonic acid, each assay tube was extracted once with 6 volumes of anhydrous diethyl ether. In most assays, the recovery of product was estimated by determining the total amount of radioactivity recovered after extraction. In the remaining assays the recovery of ^14 C-5-HETE was monitored by addition of trace quantities of ^3 H-5-HETE (New England Nuclear) prior to extraction. […] The amount of ^14 C-5-HETE presented was quantitated by liquid scintillation counting in Aquasol II (New England Nuclear) and corrected for recovery. […]

With `O[C@@H](CCCCOC1CCCCO1)[C@@H](/C=C/c1ccccc1)Sc1ccccc1` (stereo partly drawn) [Example 1g, (3R,4S)-4-Hydroxy-1-phenyl-3-phenylthio-8-(2-tetrahydropyranyloxy)-1(E)-octene], the “activity of the compound (statement in words, figures not given)” value is “Particularly active”.

On to `CC(C)=CCC[C@](C)(O)[C@@H](/C=C\C=C\c1ccccc1)Sc1ccccc1` [Example 7, (5R,6S) 1-Phenyl-5-phenylthio-6-hydroxy-6,10-dimethylundeca-(1E,3Z,9)-triene Monoh ydrate], for which the “activity of the compound (statement in words, figures not given)” value is reported as “Particularly active”.
